Measured values from the supplement of paper PMC10331698.
± gives the standard deviation of the averaged measurements.

Key:
Assay in all cases: level (log10 ratio to DMSO vehicle control); higher = higher biomarker level / cell amount than vehicle control
Conditions in all cases: in DMSO
Perfluoroheptanoic acid = compound: O=C(O)C(F)(F)C(F)(F)C(F)(F)C(F)(F)C(F)(F)C(F)(F)F [Perfluoroheptanoic acid]
Description: (§1)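 BioMAP Diversity Plus panel of 12 human primary cell co-culture systems (3C, 4H, LPS, SAg, BT, BF4T, BE3C, CASM3C, HDF3CGF, KF3CT, MyoF, Mphg). Compounds were added 1 h before stimulation and left for 24 h (MyoF 48 h; BT 72 h for soluble read-outs or 6 d for IgG). Biomarkers were read by ELISA, cytotoxicity by SRB, PBMC viability and proliferation by Alamar Blue. Each well value was divided by the mean of 8 DMSO control wells on the same plate and log10 transformed; duplicate blinded samples were tested at 4 concentrations.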

Perfluorobutanoic acid = compound: O=C(O)C(F)(F)C(F)(F)C(F)(F)F [Perfluorobutanoic acid]
Description: as §1

[1] = compound: COC(=O)CCC(F)(F)C(F)(F)C(F)(F)C(F)(F)F [Methyl 2H,2H,3H,3H-perfluoroheptanoate]
Description: as §1

[2] = compound: C=CC(F)(F)C(F)(F)C(F)(F)C(F)(F)C(F)(F)C(F)(F)C(F)(F)C(F)(F)C=C [1,8-Divinylperfluorooctane]
Description: as §1

[3] = compound: O=C(O)C(F)(F)OC(F)(F)C(F)(F)OC(F)(F)F [Perfluoro-3,6-dioxaheptanoic acid]
Description: as §1

[4] = compound: O=C(O)C(F)(F)OC(F)(F)C(F)(F)OC(F)(F)C(=O)O [Perfluoro-3,6-dioxaoctane-1,8-dioic acid]
Description: as §1

[5] = compound: FC(F)(F)C(F)(F)C(F)(F)C(F)(F)C(F)(F)C(F)(F)C(F)(F)C(F)(F)CCS [2-(Perfluorooctyl)ethanthiol]
Description: as §1

| Test System | level (log10) (Perfluoroheptanoic acid; 6700 nM) | level (log10) (Perfluoroheptanoic acid; 20000 nM) | level (log10) (Perfluoroheptanoic acid; 60000 nM) | level (log10) (Perfluorobutanoic acid; 6700 nM) | level (log10) (Perfluorobutanoic acid; 20000 nM) | level (log10) (Perfluorobutanoic acid; 60000 nM) | level (log10) ([1]; 6700 nM) | level (log10) ([1]; 20000 nM) | level (log10) ([1]; 60000 nM) | level (log10) ([2]; 6700 nM) | level (log10) ([2]; 20000 nM) | level (log10) ([3]; 6700 nM) | level (log10) ([3]; 20000 nM) | level (log10) ([3]; 60000 nM) | level (log10) ([4]; 6700 nM) | level (log10) ([4]; 20000 nM) | level (log10) ([4]; 60000 nM) | level (log10) ([5]; 6700 nM) | level (log10) ([5]; 20000 nM) |
| --- | --- | --- | --- | --- | --- | --- | --- | --- | --- | --- | --- | --- | --- | --- | --- | --- | --- | --- | --- |
| SAg:PBMC Cytotoxicity | 0.0255 ± 0.0021 | 0.0095 ± 0.019 | 0.0195 ± 0.026 | -0.0155 ± 0.00071 | -0.013 ± 0.037 | -0.009 ± 0.057 | 0.033 ± 0.021 | 0.029 ± 0.058 | 0.029 ± 0.057 | 0.017 ± 0.025 | 0.0425 ± 0.00071 | -0.0035 ± 0.029 | 0.002 ± 0.0042 | 0.013 ± 0.0028 | 0.0115 ± 0.023 | 0.012 ± 0.0099 | 0.0115 ± 0.0078 | -0.025 ± 0.023 | -0.0015 ± 0.0035 |
| LPS:CD40 | -0.0135 ± 0.043 | 0.0055 ± 0.00071 | -0.0515 ± 0.079 | 0.0245 ± 0.061 | 0 ± 0.03 | -0.0095 ± 0.022 | -0.017 ± 0.041 | 0.003 ± 0.051 | -0.015 ± 0.078 | 0.0305 ± 0.018 | 0.0225 ± 0.0064 | -0.0055 ± 0.012 | -0.0295 ± 0.039 | -0.024 ± 0.038 | 0.025 ± 0.0099 | 0.0195 ± 0.005 | -0.0175 ± 0.053 | -0.034 ± 0.055 | -0.0305 ± 0.11 |
| BF4T:IL-1alpha | -0.0085 ± 0.023 | -0.0015 ± 0.005 | 0.013 ± 0.0099 | -0.0025 ± 0.029 | 0.0085 ± 0.0064 | 0.013 ± 0.014 | -0.0085 ± 0.00071 | -0.0185 ± 0.018 | 0 ± 0.021 | -0.0175 ± 0.0021 | 0.01 ± 0.025 | -0.0225 ± 0.035 | -0.021 ± 0.024 | -0.0105 ± 0.018 | -0.004 ± 0.0099 | 0.0085 ± 0.0035 | 0.006 ± 0.021 | -0.036 ± 0.018 | -0.023 ± 0.017 |
| 4H:CD87/uPAR | 0.0355 ± 0.042 | -0.007 ± 0.054 | 0.061 ± 0.14 | -0.013 ± 0.0071 | -0.0125 ± 0.029 | -0.041 ± 0.0071 | 0.0005 ± 0.019 | 0.021 ± 0.042 | 0.0065 ± 0.033 | -0.0125 ± 0.015 | 0.0215 ± 0.0064 | -0.0205 ± 0.023 | -0.019 ± 0.011 | -0.019 ± 0.018 | -0.0095 ± 0.032 | -0.009 ± 0.037 | 0.001 ± 0.011 | -0.0055 ± 0.0021 | -0.0165 ± 0.0021 |
| BE3C:IL-1alpha | -0.0185 ± 0.029 | -0.0065 ± 0.03 | 0.0115 ± 0.0064 | 0.007 ± 0.018 | 0.0155 ± 0.021 | 0.0225 ± 0.049 | 0.014 ± 0.023 | -0.002 ± 0.013 | 0.025 ± 0.047 | 0.001 ± 0.02 | 0.026 ± 0.0057 | -0.035 ± 0.04 | -0.0345 ± 0.032 | -0.0385 ± 0.046 | 0.0105 ± 0.0092 | 0.013 ± 0.0099 | 0.0235 ± 0.063 | -0.038 ± 0.0014 | -0.017 ± 0.016 |
| BE3C:CXCL11/I-TAC | 0.0065 ± 0.015 | -0.011 ± 0.0042 | -0.003 ± 0.0042 | 0.007 ± 0.0099 | -0.003 ± 0.0014 | -0.0085 ± 0.015 | -0.0175 ± 0.012 | -0.011 ± 0.018 | -0.0095 ± 0.00071 | 0.011 ± 0.02 | -0.002 ± 0.0014 | 0.011 ± 0.023 | 0.008 ± 0.0014 | 0.012 ± 0.02 | -0.0145 ± 0.0021 | -0.015 ± 0.0042 | -0.006 ± 0.013 | 0.0035 ± 0.037 | 0.0175 ± 0.035 |
| 4H:VEGFR2 | 0.016 ± 0.027 | 0.022 ± 0.013 | 0.012 ± 0.054 | -0.025 ± 0.021 | -0.0105 ± 0.005 | 0.004 ± 0.013 | 0.0325 ± 0.013 | 0.0435 ± 0.03 | 0.0495 ± 0.069 | -0.0065 ± 0.056 | 0.053 ± 0.0085 | -0.035 ± 0.0099 | -0.009 ± 0.048 | -0.013 ± 0.0071 | -0.045 ± 0.016 | -0.06 ± 0.011 | -0.016 ± 0.047 | -0.0145 ± 0.026 | 0.0405 ± 0.074 |
